Laboratory results published in US6448260B2, “Endothelin receptor antagonists” (SmithKline Beecham Corporation, priority 1991, dated 2002).

SMILES | melting point [°C]
O=C(O)[C@H]1[C@H](c2ccc3c(c2)OCO3)c2ccccc2[C@@H]1c1ccccc1 (racemic) [Example 8, (1RS, 2RS, 3SR)-1-(3,4-Methylenedioxyphenyl)-3-phenylindane-2-carboxylic acid] | 186 to 187
CCCOc1ccc2c(c1)[C@@H](c1ccc(OC)cc1OCC(=O)O)[C@@H](C(=O)O)[C@H]2c1cc2c(cc1OC)OCO2 (racemic) [Example 30, (1RS, 2SR, 3SR)-3-(2-Carboxymethoxy-4-methoxyphenyl)-1-(2-methoxy-4,5-methylenedioxyphenyl)-5-(prop-1-yloxy)-indane-2-carboxylic acid] | 188 to 190
COc1ccc([C@@H]2c3ccccc3[C@H](c3ccc4c(c3)OCO4)[C@H]2c2nnn[nH]2)cc1 (racemic) (hydrate or solvate) [Example 9, (1RS, 2SR, 3SR)-1-(4-Methoxyphenyl)-3-(3,4-methylenedioxyphenyl)-2-(tetrazol-5-yl)indane] | 155 to 157
CCCOc1ccc2c(c1)[C@H](c1ccccc1OCCC)[C@@H](C(=O)O)[C@@H]2c1ccc2c(c1)OCO2 (racemic) [Example 35, (1RS, 2SR, 3RS)-1-(3,4-Methylenedioxyphenyl)-3-[2-(prop-1-yloxy)phenyl]-5-(prop-1-yloxy)indane-2-carboxylic acid] | 179 to 180
COc1ccc([C@H]2c3ccccc3[C@@H](c3ccc(OC)c(OC)c3)[C@@H]2C(=O)O)cc1 (racemic) [Example 26, (1RS, 2RS, 3SR)-1-(3,4-Dimethoxyphenyl)-3-(4-methoxyphenyl)indane-2-carboxylic acid] | 126 to 128
CCCOc1ccc2c(c1)[C@H](c1ccccc1OCC(=O)O)[C@@H](C(=O)O)[C@@H]2c1ccc2c(c1)OCO2 (racemic) [Example 37, (1 RS, 2SR, 3RS)-3-(2-Carboxymethoxyphenyl)-1-(3,4-methylenedioxyphenyl)-5-(prop-1-yloxy)indane-2-carboxylic acid] | 169 to 170

The remaining lines, values ahead:

melting point [°C] | SMILES
169 to 170 | CCOc1ccc([C@@H]2c3ccccc3[C@H](c3ccc4c(c3)OCO4)[C@H]2C(=O)O)cc1 (racemic) [Example 73, (1RS, 2SR, 3SR)-1-(4-Ethoxyphenyl)-3-(3,4-methylenedioxyphenyl)indane-2-carboxylic acid]
149 to 150 | COc1ccc([C@@H]2c3cc(OC)ccc3[C@@H](c3ccc4c(c3)OC(OC)O4)[C@H]2C(=O)O)cc1 (mixture of isomers) [Example 84, (1RS, 2SR, 3RS)-5-Methoxy-3-(4-methoxyphenyl)-1-(2-methoxy4,5-methylenedioxyphenyl)indane-2-carboxylic acid]
183 to 185 | CCCOc1ccc2c(c1)[C@H](c1ccc(OC(C)C)cc1OCC(=O)O)[C@H](C(=O)O)[C@@H]2c1ccc2c(c1)OCO2 (racemic) [Example 95, (1RS, 2RS, 3RS)-3-(2-Carboxymethoxy-4-isopropyloxyphenyl)-1-(3,4-methylenedioxyphenyl)-5-(prop-1-yloxy)indane-2-carboxylic acid]
194 to 196 | CCCOc1ccc2c(c1)[C@H](c1ccc(OCC)cc1OCC(=O)O)[C@@H](C(=O)O)[C@@H]2c1ccc2c(c1)OCO2 (racemic) [Example 96, (1RS, 2SR, 3RS)-3-(2-Carboxymethoxy-4-ethyloxyphenyl)-1-(3,4-methylenedioxyphenyl)-5-(prop-1-yloxy)indane-2-carboxylic acid]
225 to 226 | COc1cc(OC)c([C@H]2c3ccc(O)cc3[C@@H](c3ccc4c(c3)OCO4)[C@@H]2C(=O)O)c(OC)c1 (racemic) [Example 78, (1RS, 2SR, 3RS)-5-Hydroxy-3-(3,4-methylenedioxyphenyl)-1-(2,4,6-trimethoxyphenyl)indane-2-carboxylic acid]
199 to 201 | CCCOc1ccc2c(c1)[C@H](c1ccc(OC)cc1OCC#N)[C@@H](C(=O)O)[C@@H]2c1ccc2c(c1)OCO2 (racemic) [Example 50, (1RS,2SR,3RS)-3-(2-Cyanomethoxy-4-methoxyphenyl)-1-(3,4-methylenedioxyphenyl)-5-(prop-1-yloxy)indane-2-carboxylic acid]
148 to 149 | COc1ccc([C@@H]2c3cc(OC)ccc3[C@H](c3ccc4c(c3OC)OCO4)[C@H]2C(=O)O)cc1 (racemic) [Example 93, (1RS, 2SR, 3RS)-5-Methoxy-1-(2-methoxy-3,4-methylenedioxyphenyl)-3-(4-methoxyphenyl)indane-2-carboxylic acid]
85 to 89 | CCCOc1ccc2c(c1)[C@H](c1ccc(OC)cc1OCC(C)C)[C@@H](C(=O)O)[C@@H]2c1ccc2c(c1)OCO2 (racemic) [Example 43, (1RS, 2SR, 3RS)-3-[4-Methoxy-2-(2-methylprop-1-yloxy)phenyl]-1-(3,4-methylenedioxyphenyl)-5-(prop-1-yloxy)indane-2-carboxylic acid]
